These results are taken from paper PMC8058344, “ARIH1 signaling promotes anti-tumor immunity by targeting PD-L1 for proteasomal degradation” (Nature Communications, 2021).

Molecules are shown by their SMILES.

In this experiment the test system is 4T1 tumor xenograft. Nature of the experiment: 4T1 tumor xenograft model with ES-072 and/or anti-CTLA4. It is filed as in vivo, BALB/c mice. Here is the method: Fig. 6 ARIH1 promotes anti-tumor immunity via PD-L1 degradation. a Immunoblot of PD-L1 and ARIH1 (HA) in H1975 cells transfected with HA-ARIH1 (WT or Y392C); HA-tagged empty vector (HA-EV) was transfected as a negative control. b Co-IP analysis for the interaction of K48-ubiquitin, ARIH1 (HA), and PD-L1 in HEK293T cells transfected with Flag-PD-L1 and HA-ARIH1 (WT or Y392C) in the presence of 10 μM MG132 for 6 h. c 4T1 cells were infected with an empty vector (CTRL) or two different ARIH1-overexpressing lentiviral preparations (OE#1 and OE#2). ARIH1 and PD-L1 levels were determined by immunoblotting. d–f Tumor growth (d, e) of CTRL (n = 10) and ARIH1-OE cells (n = 11) in BALB/c mice and final tumor weights (f). […]
For xenograft model with 4T1 cells and combination therapy with ES-072 and anti-CTLA4, 5 × 10^5 4T1 cells suspended in 50 μL PBS and Matrigel (1 : 1 v/v) were injected into the fourth breast fat pad. On days 3 after injection, tumor size was measured and calculated by using the formula 1/2 × length × width^2. […]
Excised tumors were digested in collagenase/hyaluronidase and DNase at 37 °C for 45 min to make cell suspension with a 45 μm filter (BD Bioscience). […] Data acquisition was performed using flow cytometry (Beckman Coulter Cytoflex) and data were analyzed using CytExpert V2.3 software. […]

In the case of `C=CC(=O)Nc1cccc(Nc2nc(Nc3ccc(N4CCN(C)CC4)nc3OC)ncc2C(F)(F)F)c1` [ES-072], under “4T1 cells in BALB/c mice, ES-072 60 mg/kg i.g. daily, anti-CTLA4 100 μg i.p. day 7, 10, 13”, the tumor growth result was “significantly decreased”. Under “4T1 tumors, western blotting”, the “PD-L1 levels in tumor lysates” value is given as “decreased”.
